Measured values: ChEMBL document CHEMBL1201862, “PubChem BioAssay data set” (2004)
The source made the active and inactive calls.

Assays:
[1] = potency of ADAM10 substrate cleavage blockers – biochemical, QFRET, dose response (AID 743254);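 note: ADAM10 enzyme with the DM2 quenched FRET peptide as substrate; EDANS fluorescence gain as the protease cuts the substrate; inhibitor potency against ADAM10 proteolytic activity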
[2] = molecular target: T1, Disintegrin and metalloproteinase domain-containing protein 17 (Homo sapiens, UniProt P78536); test: inhibition of ADAM17 substrate cleavage – biochemical, quenched FRET substrate, counter-screen for ADAM10 exosite inhibitor project, dose response (AID 743253)
[3] = general mammalian cell viability loss – inhibitor set, cherry-pick, set 2, cytotoxicity control for miR-122 modulator project, dose response (AID 720697); type: functional, cell-based
[4] = molecular target: Paired box protein Pax-8 (Homo sapiens, UniProt Q06710); test: PAX8 transcriptional activity inhibition in RMG-I – RMG-I cells, luciferase, cherry-pick, dose response (AID 687027); type: functional, cell-based;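 note: luciferase reporter driven by Pax8 target thyroperoxidase promoter measured by SteadyGlo luminescence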
[5] = molecular target: T2, Protein RecA (Mycobacterium tuberculosis, UniProt P9WHJ3); test: Fluorescence Cell-Free Homogeneous Dose Retest to Identify Inhibitors of RecA-Intein Splicing Activity. [Related pubchem assays (depositor defined):AID2097, AID2223, AID489010, AID492950]; type: functional
T2 sequence (P9WHJ3 whole entry): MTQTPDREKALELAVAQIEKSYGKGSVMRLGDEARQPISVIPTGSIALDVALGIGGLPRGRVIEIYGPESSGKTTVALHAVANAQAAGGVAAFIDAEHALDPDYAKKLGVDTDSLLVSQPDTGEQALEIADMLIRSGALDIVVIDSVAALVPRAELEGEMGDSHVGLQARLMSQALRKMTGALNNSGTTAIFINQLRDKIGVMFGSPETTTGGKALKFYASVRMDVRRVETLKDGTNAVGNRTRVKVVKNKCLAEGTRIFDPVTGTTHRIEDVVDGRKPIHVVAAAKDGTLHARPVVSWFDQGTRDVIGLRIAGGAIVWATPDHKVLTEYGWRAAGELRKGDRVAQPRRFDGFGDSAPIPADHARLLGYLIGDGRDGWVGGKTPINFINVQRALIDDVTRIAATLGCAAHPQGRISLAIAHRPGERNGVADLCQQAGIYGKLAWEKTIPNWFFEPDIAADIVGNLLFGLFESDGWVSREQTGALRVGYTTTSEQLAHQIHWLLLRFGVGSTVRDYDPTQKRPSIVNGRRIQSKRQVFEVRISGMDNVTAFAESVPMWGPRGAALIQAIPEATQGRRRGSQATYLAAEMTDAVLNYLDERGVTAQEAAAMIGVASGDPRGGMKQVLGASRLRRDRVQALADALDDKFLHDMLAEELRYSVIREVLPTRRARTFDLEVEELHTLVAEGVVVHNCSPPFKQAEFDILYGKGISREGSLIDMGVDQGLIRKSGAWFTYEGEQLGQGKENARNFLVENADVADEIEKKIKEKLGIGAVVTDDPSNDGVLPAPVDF

[6] = tested on: H4; test: Luminescence Cell-Based Dose Response HTS to Identify Activators of 5'UTR Stem-Loop Driven Prion Protein mRNA Translation in H4 Neuroglioblastoma Cells. [Related pubchem assays: 1829 (Project Summary), 1814 (Primary HTS)]; type: functional; conditions: Homo sapiens
[7] = general cell-killing toxicity readout – plate reader, dry powder samples, cytotoxicity control for PAX8 inhibitor project, dose response (AID 743021); type: functional, cell-based
[8] = molecular target: T3, Replicative DNA helicase DnaB (Mycobacterium tuberculosis, UniProt P9WMR3); test: DnaB intein splicing inhibitors, dose response, biochemical, cell-free fluorescence (AID 449749); type: functional
T3 sequence (P9WMR3 whole entry): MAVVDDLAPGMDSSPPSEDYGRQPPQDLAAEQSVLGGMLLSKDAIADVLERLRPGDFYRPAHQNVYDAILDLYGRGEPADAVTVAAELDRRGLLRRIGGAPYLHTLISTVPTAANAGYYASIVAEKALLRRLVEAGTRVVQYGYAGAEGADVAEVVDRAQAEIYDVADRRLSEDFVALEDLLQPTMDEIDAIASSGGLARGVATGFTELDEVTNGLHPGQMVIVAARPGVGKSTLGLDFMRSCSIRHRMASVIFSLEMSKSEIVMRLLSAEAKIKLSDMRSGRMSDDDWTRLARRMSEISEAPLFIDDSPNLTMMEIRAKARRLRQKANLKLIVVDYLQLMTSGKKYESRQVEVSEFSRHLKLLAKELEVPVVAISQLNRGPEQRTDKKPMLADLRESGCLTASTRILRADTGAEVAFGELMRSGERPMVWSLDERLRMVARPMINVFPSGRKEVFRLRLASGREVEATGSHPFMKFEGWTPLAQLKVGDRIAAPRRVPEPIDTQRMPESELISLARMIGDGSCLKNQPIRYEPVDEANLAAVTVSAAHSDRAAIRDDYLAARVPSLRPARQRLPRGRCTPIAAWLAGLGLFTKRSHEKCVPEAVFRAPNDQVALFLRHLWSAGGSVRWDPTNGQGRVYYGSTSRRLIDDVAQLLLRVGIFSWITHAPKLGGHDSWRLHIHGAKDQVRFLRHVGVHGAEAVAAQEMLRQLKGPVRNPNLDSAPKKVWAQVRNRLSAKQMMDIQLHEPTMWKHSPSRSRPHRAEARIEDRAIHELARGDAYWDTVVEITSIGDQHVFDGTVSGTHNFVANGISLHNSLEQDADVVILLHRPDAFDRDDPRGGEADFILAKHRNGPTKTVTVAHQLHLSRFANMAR

[9] = Luminescence Cell-Based Dose Response HTS to Identify Activators of Luciferase Translation or Activity in H4 […] Cells. [Related pubchem assays: 1829 (Project Summary), 1814 (Primary HTS)]; type: functional
[10] = tested on: H9c2; test: cells; type: functional, cell-based; conditions: Rattus norvegicus, H9c2, Myocardium;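 note: confirmatory concentration-response retest of ultra-high-throughput screening hits for modulation of myocardial damage; cell death induced by hydrogen peroxide oxidative stress; compound pretreatment for 60 min then peroxide exposure for 2 h; potency is for protecting the cells against peroxide damage rather than for killing them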
[11] = molecular target: T4, Methionyl-tRNA synthetase, putative (Trypanosoma brucei brucei, UniProt Q38C91); type: functional, Trypanosoma brucei brucei strain 927/4 GUTat10.1
T4 sequence (Q38C91 whole entry): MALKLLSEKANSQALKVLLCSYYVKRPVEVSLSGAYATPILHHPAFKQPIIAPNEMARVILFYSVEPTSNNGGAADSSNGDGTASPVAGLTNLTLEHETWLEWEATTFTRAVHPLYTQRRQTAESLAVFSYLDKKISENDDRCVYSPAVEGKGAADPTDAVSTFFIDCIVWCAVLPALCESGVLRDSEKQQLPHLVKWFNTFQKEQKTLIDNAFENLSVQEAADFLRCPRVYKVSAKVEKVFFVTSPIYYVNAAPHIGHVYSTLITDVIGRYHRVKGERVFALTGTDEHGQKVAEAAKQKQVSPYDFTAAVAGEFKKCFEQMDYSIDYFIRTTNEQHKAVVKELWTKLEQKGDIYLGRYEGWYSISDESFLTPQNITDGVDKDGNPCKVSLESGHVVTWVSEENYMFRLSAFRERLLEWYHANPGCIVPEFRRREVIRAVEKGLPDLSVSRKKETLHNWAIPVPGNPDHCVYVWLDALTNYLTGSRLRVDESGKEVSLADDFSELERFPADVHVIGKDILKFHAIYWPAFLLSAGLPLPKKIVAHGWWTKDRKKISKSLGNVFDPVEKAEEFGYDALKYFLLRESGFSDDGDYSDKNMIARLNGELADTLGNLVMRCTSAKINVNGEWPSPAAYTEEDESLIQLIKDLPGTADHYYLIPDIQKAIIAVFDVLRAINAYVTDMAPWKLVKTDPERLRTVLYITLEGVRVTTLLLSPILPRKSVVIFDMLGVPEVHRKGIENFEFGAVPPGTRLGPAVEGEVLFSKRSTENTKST

[12] = molecular target: T5, Long-chain-fatty-acid--AMP ligase FadD28 (Mycobacterium tuberculosis, UniProt P9WQ59); test: Fluorescence polarization aasay to screen for inhibitors that compete for the binding of FadD28 to a bisubstrate Measured in Biochemical System Using Plate Reader - 2147-01_Inhibitor_Dose_CherryPick_Activity.; type: functional, Mycobacterium tuberculosis H37Rv
T5 sequence (P9WQ59 whole entry): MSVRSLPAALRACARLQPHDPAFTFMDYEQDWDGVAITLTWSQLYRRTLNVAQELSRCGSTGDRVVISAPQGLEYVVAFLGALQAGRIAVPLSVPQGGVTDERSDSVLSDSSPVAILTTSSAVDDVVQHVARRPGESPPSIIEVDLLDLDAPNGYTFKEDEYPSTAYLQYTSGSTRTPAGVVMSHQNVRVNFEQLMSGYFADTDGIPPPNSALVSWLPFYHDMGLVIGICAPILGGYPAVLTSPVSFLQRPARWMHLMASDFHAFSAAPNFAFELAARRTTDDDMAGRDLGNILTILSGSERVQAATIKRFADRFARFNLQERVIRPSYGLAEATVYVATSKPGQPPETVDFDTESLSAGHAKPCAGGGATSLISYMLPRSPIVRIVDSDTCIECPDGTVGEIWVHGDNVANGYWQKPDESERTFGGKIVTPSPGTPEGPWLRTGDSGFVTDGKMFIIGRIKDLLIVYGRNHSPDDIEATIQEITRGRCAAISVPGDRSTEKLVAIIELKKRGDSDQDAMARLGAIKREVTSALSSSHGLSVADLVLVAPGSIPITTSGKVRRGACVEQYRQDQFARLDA

[13] = molecular target: T4, Methionyl-tRNA synthetase, putative; type: functional, Trypanosoma brucei brucei strain 927/4 GUTat10.1; remark: listed apart in the source
[14] = Counterscreen for inhibitors of Trypanosoma brucei methionyl tRNA synthetase (MetRS): Luminescence-based cell-based high throughput dose response assay to identify compounds that are cytotoxic to Jurkat human T lymphocyte cells.; type: functional
[15] = inhibition of ADAM10 peptide cleavage – biochemical, FRET peptide substrate, recombinant human ADAM10, selectivity assay for ADAM17 exosite inhibitor project, dose response (AID 743259);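 note: ADAM10 enzyme cleaving a FRET peptide substrate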
[16] = molecular target: T1, Disintegrin and metalloproteinase domain-containing protein 17; test: exosite inhibitors of ADAM17, dose response, biochemical (AID 743260)
[17] = molecular target: T6, Nuclear receptor subfamily 0 group B member 1 (Homo sapiens, UniProt P51843); type: functional, cell-based;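 note: HEK293T cells transfected with SF-1 and DAX-1 plus StAR promoter luciferase reporter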
T6 sequence (P51843 whole entry): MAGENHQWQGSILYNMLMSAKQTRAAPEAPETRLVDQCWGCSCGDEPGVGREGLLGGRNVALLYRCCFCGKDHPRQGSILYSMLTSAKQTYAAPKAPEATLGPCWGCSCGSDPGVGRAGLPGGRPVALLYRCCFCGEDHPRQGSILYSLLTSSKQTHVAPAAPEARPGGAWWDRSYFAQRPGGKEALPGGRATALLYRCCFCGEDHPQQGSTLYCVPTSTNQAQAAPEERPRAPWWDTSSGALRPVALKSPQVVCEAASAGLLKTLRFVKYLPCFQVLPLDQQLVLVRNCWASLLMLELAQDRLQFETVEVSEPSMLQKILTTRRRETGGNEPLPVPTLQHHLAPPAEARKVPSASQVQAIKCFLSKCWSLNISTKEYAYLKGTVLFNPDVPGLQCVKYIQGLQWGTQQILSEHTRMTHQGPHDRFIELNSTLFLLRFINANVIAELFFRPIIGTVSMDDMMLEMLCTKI

[18] = cells; type: functional, cell-based
[19] = IGROV1 cell killing – plate reader, dry powder samples, PAX8 inhibitor project, dose response (AID 743043); type: functional, cell-based; conditions: IGROV-1
[20] = OVCAR8 cell viability loss – plate reader, dry powder samples, PAX8 project, dose response (AID 743197); type: functional, cell-based; conditions: OVCAR-8
[21] = OVCAR-3 cell viability loss – plate reader, dry powder samples, PAX8 inhibitor project, dose response (AID 743044); type: functional, cell-based

T1 sequence (P78536 whole entry, the tested form may be a part): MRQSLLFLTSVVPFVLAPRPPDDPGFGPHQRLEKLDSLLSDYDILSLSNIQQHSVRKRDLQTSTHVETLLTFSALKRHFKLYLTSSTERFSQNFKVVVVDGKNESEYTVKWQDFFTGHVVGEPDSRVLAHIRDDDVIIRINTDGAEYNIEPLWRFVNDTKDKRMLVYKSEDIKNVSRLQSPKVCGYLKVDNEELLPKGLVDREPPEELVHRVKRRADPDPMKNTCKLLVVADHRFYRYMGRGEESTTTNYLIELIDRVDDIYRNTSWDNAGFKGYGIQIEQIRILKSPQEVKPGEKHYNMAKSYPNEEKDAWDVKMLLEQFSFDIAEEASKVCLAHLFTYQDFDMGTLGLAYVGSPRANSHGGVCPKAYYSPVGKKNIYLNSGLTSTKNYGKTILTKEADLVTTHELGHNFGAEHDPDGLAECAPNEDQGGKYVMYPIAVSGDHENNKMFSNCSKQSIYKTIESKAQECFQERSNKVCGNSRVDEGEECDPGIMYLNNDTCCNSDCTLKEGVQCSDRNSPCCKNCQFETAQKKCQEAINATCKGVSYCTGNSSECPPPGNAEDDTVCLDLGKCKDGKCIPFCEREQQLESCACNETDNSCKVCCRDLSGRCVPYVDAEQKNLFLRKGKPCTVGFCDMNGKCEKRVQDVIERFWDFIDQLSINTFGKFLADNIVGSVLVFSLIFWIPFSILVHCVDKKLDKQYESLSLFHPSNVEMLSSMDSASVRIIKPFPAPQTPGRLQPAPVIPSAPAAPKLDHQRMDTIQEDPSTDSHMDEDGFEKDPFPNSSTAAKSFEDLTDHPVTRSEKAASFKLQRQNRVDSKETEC
Sequence of Paired box protein Pax-8 (Q06710 whole entry): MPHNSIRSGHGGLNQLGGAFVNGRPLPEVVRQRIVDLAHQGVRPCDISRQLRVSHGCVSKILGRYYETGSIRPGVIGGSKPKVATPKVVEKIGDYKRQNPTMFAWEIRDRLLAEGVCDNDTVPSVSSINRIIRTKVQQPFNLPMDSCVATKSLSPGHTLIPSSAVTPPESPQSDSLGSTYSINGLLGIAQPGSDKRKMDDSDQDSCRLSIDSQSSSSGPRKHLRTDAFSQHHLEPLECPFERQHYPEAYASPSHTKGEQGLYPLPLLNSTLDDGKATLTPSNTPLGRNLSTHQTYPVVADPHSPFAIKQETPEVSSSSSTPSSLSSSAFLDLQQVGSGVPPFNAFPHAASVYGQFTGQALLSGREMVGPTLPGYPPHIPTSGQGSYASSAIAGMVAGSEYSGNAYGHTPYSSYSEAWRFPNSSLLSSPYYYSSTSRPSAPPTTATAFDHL

COC(=O)C1=C(c2ccccc2OCc2ccccc2)C[C@@H]2CC[C@H]1N2C(=O)NCc1ccc(C(C)(C)C)cc1
IC50 [1]: > 69.5 µM (inactive)
IC50 [2]: > 69.5 µM (inactive)

Cc1ccc(-n2c(S)nnc2Cc2ccccc2)cc1
AC50 [3]: 3.74 µM (active)

Cc1ccc(-n2nc(C)c(NC(=O)CCl)c2C)cc1C
AC50 [4]: 6.77 µM (active)
EC50 [5]: 16 µM (active)
EC50 [6]: > 120 µM (not active)
AC50 [7]: 39.5 µM (active)
AC50 [8]: > 380 µM (inactive)
EC50 [9]: 115 µM (active)

O=C(NO)c1ccc(C(=O)N(C2CCCCC2)C2CCCCC2)cc1
IC50 [1]: 14.6 µM (inactive)
IC50 [10]: > 79 µM (inactive)
IC50 [2]: 34.9 µM (inactive)

O=C(NN1C(=O)/C(=C/c2ccc(O)cc2)SC1=S)c1cccc(O)c1
IC50 [11]: 30.9 µM (inactive)
AC50 [12]: 62 µM (active)
IC50 [13]: 44.6 µM (inactive)
IC50 [14]: 83.3 µM (inactive)

COc1ccccc1/C=C/C1C(C(=O)OCC(C)C)=C(C)N=C2SCCC(=O)N21 (stereo unspecified)
IC50 [15]: > 69.5 µM (inactive)
IC50 [16]: > 69.5 µM (inactive)

Clc1ccc(OCc2cc(-c3ccccc3)no2)c(Cl)c1
IC50 [17]: > 67.5 µM (inactive)
IC50 [18]: > 67.5 µM (inactive)

FC(F)(F)c1cc(CCN2C(=S)NC[C@@H]2Cc2ccccc2)cc(C(F)(F)F)c1
IC50 [2]: > 69.5 µM (inactive)

FC(F)(F)c1cc(CCN2C(S)=NC[C@@H]2Cc2ccccc2)cc(C(F)(F)F)c1
IC50 [1]: 11.8 µM (inactive)

Cc1cc(Cl)c2oc(C(=O)N(C)C3CCOC3)c(C)c2c1 (stereo unspecified)
IC50 [17]: > 67.5 µM (inactive)
IC50 [18]: > 67.5 µM (inactive)

COC(=O)c1sccc1NC(=O)Nc1ccc(C)cc1
IC50 [17]: > 67.6 µM (inactive)
IC50 [18]: > 67.6 µM (inactive)

O=C1NC(=O)C(Cc2ccc(Cl)cc2)(c2ccccc2)N1 (stereo unspecified)
IC50 [15]: 29.4 µM (inactive)
IC50 [16]: 3.67 µM (active)

O=C(Nc1ccc(F)cc1)N1C[C@@H]2N[C@H](C1)[C@@H]2c1ccc(-c2ccccc2F)cc1
AC50 [4]: 13.8 µM (active)
AC50 [19]: 42.5 µM (active)
AC50 [7]: 55.6 µM (active)
AC50 [20]: > 70 µM (inactive)
AC50 [21]: 32 µM (active)

COCC(=O)NC[C@@H]1[C@H](c2ccc(C3=CCCC3)cc2)[C@H](CO)N1C(=O)C1CC1
AC50 [3]: 0.499 µM (active)

Cc1ccc(OCc2nnc(SC/C=C/c3ccccc3)n2Cc2ccco2)cc1
IC50 [15]: 16 µM (inactive)
IC50 [16]: > 69.6 µM (inactive)
